What was measured:
Sf9 cell line = details: TC-100 + 10% FBS, 27° C.
Procedure: (§1) The dipteran (D. melanogaster) cell lines Kc1 and SL2, and the lepidopteran cell lines Sf9 (S. frugiperda), Ld652Y (L. dispar) and Cf1 (Choristoneura fumeferana) were tested for sensitivity to Zeocin in order to establish whether Zeocin was toxic in standard culture conditions to cell lines from these disparate insect orders. Zeocin is thought to exert its toxic effects by binding to DNA to induce double strand breaks. Such strand cleavage is thought to inhibit growth by disruption of DNA replication, which in turn interferes with subsequent cell division. Accordingly, cells already committed to division would not be expected to be affected by Zeocin until the next round of DNA replication; it would therefore be expected that cells treated with Zeocin may divide once, but will be unable to undergo further mitotic divisions since their DNA will not be intact.
(§2) In accordance with the current understanding of Zeocin's mechanism of action, the minimal inhibitory concentration of Zeocin is described herein as the amount of antibiotic required to limit the culture to one doubling. Growth curves for the determination of inhibitory concentrations of Zeocin in the Kc1, SL2 and Sf9 cell lines (FIG. 4a) were performed in rotating 1.5 ml microcentrifuge tubes containing 1 ml of TC-100 complete medium (pH=6.2) with 10% fetal bovine serum (Life Technologies, Gaithersburg, Md., U.S.A.), 0.5–1.0×10^6 cells and varying concentrations of Zeocin (obtained from Invitrogen, San Diego, Calif.) at 27° C. Samples were removed daily, stained with 0.4% trypan blue and the number of viable cells determined in quadruplicate using a hemocytometer. The minimal inhibitory Zeocin concentrations affecting Ld652Y and Cf1 cell lines were determined by seeding approximately 5,000 cells in a total volume of 200 μl TC-100 complete medium +10% fetal bovine serum+Zeocin into wells of 96 well microtitre plates.

Kc1 cell line = test system: Kc1 cell line
Procedure: as §1, §2

Cf1 cell line = details: TC-100 + 10% FBS
Procedure: as §1, §2

Ld652Y cell line = details: Zeocin 10 μg/ml
Procedure: as §1, §2

Procedure for SL2 cell line: The dipteran (D. melanogaster) cell lines Kc1 and SL2, and the lepidopteran cell lines Sf9 (S. frugiperda), Ld652Y (L. dispar) and Cf1 (Choristoneura fumeferana) were tested for sensitivity to Zeocin in order to establish whether Zeocin was toxic in standard culture conditions to cell lines from these disparate insect orders. […] Accordingly, cells already committed to division would not be expected to be affected by Zeocin until the next round of DNA replication; it would therefore be expected that cells treated with Zeocin may divide once, but will be unable to undergo further mitotic divisions since their DNA will not be intact.
In accordance with the current understanding of Zeocin's mechanism of action, the minimal inhibitory concentration of Zeocin is described herein as the amount of antibiotic required to limit the culture to one doubling. […] Samples were removed daily, stained with 0.4% trypan blue and the number of viable cells determined in quadruplicate using a hemocytometer.

SMILES: Cc1c(N)nc([C@H](CC(N)=O)NC[C@H](N)C(N)=O)nc1C(=O)N[C@H](C(=O)N[C@H](C)[C@@H](O)[C@H](C)C(=O)N[C@H](C(=O)NCCC1=N[C@@H](c2nc(C(=O)NCCCCN=C(N)N)cs2)CS1)[C@@H](C)O)[C@@H](O[C@@H]1O[C@@H](CO)[C@@H](O)[C@H](O)[C@@H]1O[C@H]1O[C@H](CO)[C@@H](O)[C@H](OC(N)=O)[C@@H]1O)c1cnc[nH]1 [Zeocin]
- Zeocin concentration found to inhibit growth (C6/36 cell line): 250 µg/mL
- Zeocin concentration required to completely inhibit further cell division (Sf9 cell line): at least 250 μg/ml
- Zeocin concentration that inhibited more than one round of cell division (Kc1 cell line; TC-100 + 10% FBS, 27° C.): greater than 50 μg/ml
- effect on growth rate (Kc1 cell line; Zeocin 10 μg/ml): dramatic reductions in growth rates
- Zeocin concentration required to completely inhibit further cell division (Cf1 cell line): at least 250 μg/ml
- effect on growth rate (Ld652Y cell line): dramatic reductions in growth rates
- Zeocin concentration that inhibited more than one round of cell division (SL2 cell line; TC-100 + 10% FBS, 27° C.): > 75 mg/mL
- effect on growth rate (SL2 cell line; Zeocin 10 μg/ml): dramatic reductions in growth rates
- Zeocin concentration found to inhibit growth (Hi5 cell line): 800 µg/mL

From patent publication US7135337B2, “Insect expression vectors” (priority 1997, dated 2006)
